This is an account of results in patent US20080051387A1, “TETRAHYDROPYRIDO[3,4-D]PYRIMIDINES AND RELATED ANALOGUES” (priority 2006, published 2008).

Some results are limits rather than exact numbers.

This assay has as its target T1, chimeric human H3 receptor (Homo sapiens, UniProt Q9Y5N1).
T1 construct: rat Galpha-i2 (Gnai2, rat); made in house; host or cells: Sf9 insect cells (baculovirus); P2 membranes
The experiment in a line: Chimeric human H3 receptor screening GTP binding assay (inhibition of histamine-stimulated GTP-gamma35S binding, Example 8). The following applies: 1 h; assay described in Example 8; symbol "!" in column headed Ki; read-out: Ki ("!": percent inhibition of agonist-induced GTP-gammaS binding to H3). In kind it is biochemical. In a few lines: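 Sf9 membranes co-expressing chimeric human H3 receptor and heterotrimeric G-protein (35 μg protein) incubated 60 min at room temperature with 4 μM compound, 1 μM histamine and 125 pM GTP-gamma35S in pH 7.4 buffer with 10 μM GDP. Filter-bound radioactivity, nonspecific (10 μM GTP-gammaS) subtracted, reported as % inhibition of histamine signal.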
(Binding of GTPγS marks nucleotide exchange on a G protein.)

T1 sequence (Q9Y5N1 with tags, fused parts or gaps): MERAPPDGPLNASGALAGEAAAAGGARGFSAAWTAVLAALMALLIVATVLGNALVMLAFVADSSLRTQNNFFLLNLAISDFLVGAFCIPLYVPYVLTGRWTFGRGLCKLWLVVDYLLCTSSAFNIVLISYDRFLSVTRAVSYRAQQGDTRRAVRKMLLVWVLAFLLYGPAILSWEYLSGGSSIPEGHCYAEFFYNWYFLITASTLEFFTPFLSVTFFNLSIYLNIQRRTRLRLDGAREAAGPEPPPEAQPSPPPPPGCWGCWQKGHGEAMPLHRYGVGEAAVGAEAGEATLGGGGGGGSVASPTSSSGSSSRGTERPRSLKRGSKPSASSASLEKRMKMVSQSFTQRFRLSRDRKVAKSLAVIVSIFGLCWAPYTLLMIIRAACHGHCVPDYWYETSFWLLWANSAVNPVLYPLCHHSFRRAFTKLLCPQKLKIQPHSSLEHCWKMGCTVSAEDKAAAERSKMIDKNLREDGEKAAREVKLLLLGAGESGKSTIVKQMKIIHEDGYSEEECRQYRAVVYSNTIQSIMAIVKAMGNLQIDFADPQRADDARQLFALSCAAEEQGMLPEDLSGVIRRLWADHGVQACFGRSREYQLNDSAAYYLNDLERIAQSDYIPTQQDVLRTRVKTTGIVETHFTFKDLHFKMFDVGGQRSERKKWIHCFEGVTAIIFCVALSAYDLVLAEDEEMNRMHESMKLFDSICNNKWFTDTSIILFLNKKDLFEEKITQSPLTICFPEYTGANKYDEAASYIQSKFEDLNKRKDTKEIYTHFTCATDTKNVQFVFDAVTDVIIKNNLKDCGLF

As for `CCCSc1ncccc1C(=O)N1CCc2cnc(N3CCN(C4CCC4)CC3)nc2CC1` [Compound 541, 2-(4-cyclobutylpiperazin-1-yl)-7-{[2-(propylthio)pyridin-3-yl]carbonyl}-6,7,8,9-tetrahydro-5H-pyrimido[4,5-d]azepine], the inhibition at 4 µM is ≥ 90%. Regarding `COc1ccc(C(=O)N2CCc3cnc(N4CCN(C5CCC5)CC4)nc3CC2)c(OC)n1` [Compound 542, 2-(4-cyclobutylpiperazin-1-yl)-7-[(2,6-dimethoxypyridin-3-yl)carbonyl]-6,7,8,9-tetrahydro-5H-pyrimido[4,5-d]azepine], the inhibition at 4 µM is ≥ 90%. The same measure for `CCOc1ncccc1C(=O)N1CCc2cnc(N3CCN(C4CCC4)CC3)nc2CC1` [Compound 543, 2-(4-cyclobutylpiperazin-1-yl)-7-[(2-ethoxypyridin-3-yl)carbonyl]-6,7,8,9-tetrahydro-5H-pyrimido[4,5-d]azepine]: ≥ 90%; for `COc1ncc(Cl)cc1C(=O)N1CCc2cnc(N3CCN(C4CCC4)CC3)nc2CC1` [Compound 544, 7-[(5-chloro-2-methoxypyridin-3-yl)carbonyl]-2-(4-cyclobutylpiperazin-1-yl)-6,7,8,9-tetrahydro-5H-pyrimido[4,5-d]azepine]: ≥ 90%. The same measure for `CCCOc1ncccc1C(=O)N1CCc2cnc(N3CCN(C4CCC4)CC3)nc2CC1` [Compound 545, 2-(4-cyclobutylpiperazin-1-yl)-7-[(2-propoxypyridin-3-yl)carbonyl]-6,7,8,9-tetrahydro-5H-pyrimido[4,5-d]azepine]: ≥ 90%. As for `CC(C)Oc1ncccc1C(=O)N1CCc2cnc(N3CCN(C4CCC4)CC3)nc2CC1` [Compound 546, 2-(4-cyclobutylpiperazin-1-yl)-7-[(2-isopropoxypyridin-3-yl)carbonyl]-6,7,8,9-tetrahydro-5H-pyrimido[4,5-d]azepine], the figure is ≥ 90%; as for `O=C(/C=C/c1ccccc1F)N1CCc2cnc(N3CCN(C4CCC4)CC3)nc2CC1` [Compound 547, 2-(4-cyclobutylpiperazin-1-yl)-7-[(2E)-3-(2-fluorophenyl)prop-2-enoyl]-6,7,8,9-tetrahydro-5H-pyrimido[4,5-d]azepine], ≥ 90%; as for `O=C(/C=C/c1ccc(F)cc1)N1CCc2cnc(N3CCN(C4CCC4)CC3)nc2CC1` [Compound 548, 2-(4-cyclobutylpiperazin-1-yl)-7-[(2E)-3-(4-fluorophenyl)prop-2-enoyl]-6,7,8,9-tetrahydro-5H-pyrimido[4,5-d]azepine], ≥ 90%.

For `O=C(/C=C/c1ccc(Cl)cc1)N1CCc2cnc(N3CCN(C4CCC4)CC3)nc2CC1` [Compound 549, 7-[(2E)-3-(4-chlorophenyl)prop-2-enoyl]-2-(4-cyclobutylpiperazin-1-yl)-6,7,8,9-tetrahydro-5H-pyrimido[4,5-d]azepine], the inhibition at 4 µM is ≥ 90%. Regarding `O=C(/C=C/c1ccc(C(F)(F)F)cc1)N1CCc2cnc(N3CCN(C4CCC4)CC3)nc2CC1` [Compound 550, 2-(4-cyclobutylpiperazin-1-yl)-7-{(2E)-3-[4-(trifluoromethyl)phenyl]prop-2-enoyl}-6,7,8,9-tetrahydro-5H-pyrimido[4,5-d]azepine], the inhibition at 4 µM was ≥ 90%. With `O=C(/C=C/c1ccc(Cl)c(Cl)c1)N1CCc2cnc(N3CCN(C4CCC4)CC3)nc2CC1` [Compound 551, 2-(4-cyclobutylpiperazin-1-yl)-7-[(2E)-3-(3,4-dichlorophenyl)prop-2-enoyl]-6,7,8,9-tetrahydro-5H-pyrimido[4,5-d]azepine], the inhibition at 4 µM was ≥ 90%. As for `O=C(/C=C/c1cccc(Cl)c1)N1CCc2cnc(N3CCN(C4CCC4)CC3)nc2CC1` [Compound 552, 7-[(2E)-3-(3-chlorophenyl)prop-2-enoyl]-2-(4-cyclobutylpiperazin-1-yl)-6,7,8,9-tetrahydro-5H-pyrimido[4,5-d]azepine], the figure is ≥ 90%; as for `O=C(/C=C/c1cccc(F)c1)N1CCc2cnc(N3CCN(C4CCC4)CC3)nc2CC1` [Compound 553, 2-(4-cyclobutylpiperazin-1-yl)-7-[(2E)-3-(3-fluorophenyl)prop-2-enoyl]-6,7,8,9-tetrahydro-5H-pyrimido[4,5-d]azepine], ≥ 90%. As for `O=C(/C=C/c1cccc(F)c1F)N1CCc2cnc(N3CCN(C4CCC4)CC3)nc2CC1` [Compound 554, 2-(4-cyclobutylpiperazin-1-yl)-7-[(2E)-3-(2,3-difluorophenyl)prop-2-enoyl]-6,7,8,9-tetrahydro-5H-pyrimido[4,5-d]azepine], the figure is ≥ 90%. As for `O=C(/C=C/c1cccc(C(F)(F)F)c1)N1CCc2cnc(N3CCN(C4CCC4)CC3)nc2CC1` [Compound 555, 2-(4-cyclobutylpiperazin-1-yl)-7-{(2E)-3-[3-(trifluoromethyl)phenyl]prop-2-enoyl}-6,7,8,9-tetrahydro-5H-pyrimido[4,5-d]azepine], the figure is ≥ 90%; as for `O=C(/C=C/c1ccc(-c2ccccc2)cc1)N1CCc2cnc(N3CCN(C4CCC4)CC3)nc2CC1` [Compound 556, 7-[(2E)-3-biphenyl-4-ylprop-2-enoyl]-2-(4-cyclobutylpiperazin-1-yl)-6,7,8,9-tetrahydro-5H-pyrimido[4,5-d]azepine], ≥ 90%. `Cc1ccc(/C=C/C(=O)N2CCc3cnc(N4CCN(C5CCC5)CC4)nc3CC2)cc1` [Compound 557, 2-(4-cyclobutylpiperazin-1-yl)-7-[(2E)-3-(4-methylphenyl)prop-2-enoyl]-6,7,8,9-tetrahydro-5H-pyrimido[4,5-d]azepine]: the inhibition at 4 µM is ≥ 90%. Regarding `COc1ccc(/C=C/C(=O)N2CCc3cnc(N4CCN(C5CCC5)CC4)nc3CC2)cc1` [Compound 558, 2-(4-cyclobutylpiperazin-1-yl)-7-[(2E)-3-(4-methoxyphenyl)prop-2-enoyl]-6,7,8,9-tetrahydro-5H-pyrimido[4,5-d]azepine], the inhibition at 4 µM was ≥ 90%.

In the case of `CC(C)c1ccc(/C=C/C(=O)N2CCc3cnc(N4CCN(C5CCC5)CC4)nc3CC2)cc1` [Compound 559, 2-(4-cyclobutylpiperazin-1-yl)-7-[(2E)-3-(4-isopropylphenyl)prop-2-enoyl]-6,7,8,9-tetrahydro-5H-pyrimido[4,5-d]azepine], the inhibition at 4 µM is ≥ 90%. The same measure for `COc1ccc(/C=C/C(=O)N2CCc3cnc(N4CCN(C5CCC5)CC4)nc3CC2)cc1OC` [Compound 560, 2-(4-cyclobutylpiperazin-1-yl)-7-[(2E)-3-(3,4-dimethoxyphenyl)prop-2-enoyl]-6,7,8,9-tetrahydro-5H-pyrimido[4,5-d]azepine]: ≥ 90%; for `COc1cc(/C=C/C(=O)N2CCc3cnc(N4CCN(C5CCC5)CC4)nc3CC2)ccc1OCc1ccccc1` [Compound 561, 7-{(2E)-3-[4-(benzyloxy)-3-methoxyphenyl]prop-2-enoyl}-2-(4-cyclobutylpiperazin-1-yl)-6,7,8,9-tetrahydro-5H-pyrimido[4,5-d]azepine]: ≥ 90%. The same measure for `O=C(/C=C/c1ccc(OCc2ccc(F)cc2)cc1)N1CCc2cnc(N3CCN(C4CCC4)CC3)nc2CC1` [Compound 562, 2-(4-cyclobutylpiperazin-1-yl)-7-[(2E)-3-{4-[(4-fluorobenzyl)oxy]phenyl}prop-2-enoyl]-6,7,8,9-tetrahydro-5H-pyrimido[4,5-d]azepine]: ≥ 90%; for `Cc1cccc(/C=C/C(=O)N2CCc3cnc(N4CCN(C5CCC5)CC4)nc3CC2)c1` [Compound 563, 2-(4-cyclobutylpiperazin-1-yl)-7-[(2E)-3-(3-methylphenyl)prop-2-enoyl]-6,7,8,9-tetrahydro-5H-pyrimido[4,5-d]azepine]: ≥ 90%; for `COc1cccc(/C=C/C(=O)N2CCc3cnc(N4CCN(C5CCC5)CC4)nc3CC2)c1` [Compound 564, 2-(4-cyclobutylpiperazin-1-yl)-7-[(2E)-3-(3-methoxyphenyl)prop-2-enoyl]-6,7,8,9-tetrahydro-5H-pyrimido[4,5-d]azepine]: ≥ 90%.

Regarding `COc1cc(/C=C/C(=O)N2CCc3cnc(N4CCN(C5CCC5)CC4)nc3CC2)cc(OC)c1` [Compound 565, 2-(4-cyclobutylpiperazin-1-yl)-7-[(2E)-3-(3,5-dimethoxyphenyl)prop-2-enoyl]-6,7,8,9-tetrahydro-5H-pyrimido[4,5-d]azepine], the inhibition at 4 µM was ≥ 90%. As for `COc1cc(/C=C/C(=O)N2CCc3cnc(N4CCN(C5CCC5)CC4)nc3CC2)cc(OC)c1OC` [Compound 566, 2-(4-cyclobutylpiperazin-1-yl)-7-[(2E)-3-(3,4,5-trimethoxyphenyl)prop-2-enoyl]-6,7,8,9-tetrahydro-5H-pyrimido[4,5-d]azepine], the figure is ≥ 90%. The same measure for `O=C(/C=C/c1ccc2c(c1)OCO2)N1CCc2cnc(N3CCN(C4CCC4)CC3)nc2CC1` [Compound 567, 7-[(2E)-3-(1,3-benzodioxol-5-yl)prop-2-enoyl]-2-(4-cyclobutylpiperazin-1-yl)-6,7,8,9-tetrahydro-5H-pyrimido[4,5-d]azepine]: ≥ 90%; for `COc1ccccc1/C=C/C(=O)N1CCc2cnc(N3CCN(C4CCC4)CC3)nc2CC1` [Compound 568, 2-(4-cyclobutylpiperazin-1-yl)-7-[(2E)-3-(2-methoxyphenyl)prop-2-enoyl]-6,7,8,9-tetrahydro-5H-pyrimido[4,5-d]azepine]: ≥ 90%.

Take `CCOc1ccccc1/C=C/C(=O)N1CCc2cnc(N3CCN(C4CCC4)CC3)nc2CC1` [Compound 569, 2-(4-cyclobutylpiperazin-1-yl)-7-[(2E)-3-(2-ethoxyphenyl)prop-2-enoyl]-6,7,8,9-tetrahydro-5H-pyrimido[4,5-d]azepine]: the inhibition at 4 µM was ≥ 90%.

As a reminder, the inhibition is the drop in the measured response relative to a control, in per cent.
